PMC7024302, “Ultrashort Cationic Lipopeptides–Effect of N-Terminal Amino Acid and Fatty Acid Type on Antimicrobial Activity and Hemolysis” (Molecules, 2020)
In brackets after ≈: the same amount, converted by molar mass. Residues, ends and D or L forms follow the SMILES beside them.

What was measured:
[1] = design: method as in earlier work; conditions: cited from earlier work
[2] = Determination of peptide hydrophobicity with RP-HPLC (adjusted retention time); format: physicochemical; conditions: Table 3; adjusted retention time as hydrophobicity; RP-HPLC C18, linear 10–55% acetonitrile over 60 min, 0.1% TFA, 25.0 °C, UV 214 nm, triplicate
Summary of the method: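 Peptides at 1 g/L in water with 0.1% TFA run on a C18 column (3.0 × 100 mm, 5 µm). Elution with a linear 10–55% acetonitrile gradient over 60 min, 0.1% TFA in both eluents, 0.5 mL/min, 25.0 ± 0.1 °C. Detection at 214 nm, in triplicate.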

[3] = test system: S. aureus ATCC 25923; format: cell-based, Staphylococcus aureus; conditions: ATCC 25923, 18 h
Summary of the method: (§1)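 CLSI broth microdilution in MHB, bacterial inoculum 5 × 10^5 CFU/mL exposed to lipopeptides at 0.5–256 µg/mL, 18 h at 37 °C. MIC taken as lowest concentration inhibiting noticeable growth; triplicate runs.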

[4] = test system: S. aureus ATCC 33591 (MRSA); format: cell-based, Staphylococcus aureus; conditions: ATCC 33591, 18 h
Summary of the method: as §1

[5] = test system: P. aeruginosa ATCC 9027; format: cell-based, Pseudomonas aeruginosa; conditions: ATCC 9027, 18 h
Summary of the method: as §1

[6] = test system: C. albicans ATCC 10231; format: cell-based, Candida albicans; conditions: ATCC 10231, 24 h, pH 7
[7] = test system: human red blood cells (hRBCs); format: cell-based; conditions: red cells of human, 1 h
Summary of the method: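 Fresh EDTA-anticoagulated human RBCs, PBS-washed, at 4% (v/v) final were exposed to lipopeptides at 0.5–256 µg/mL for 1 h at 37 °C. Released haemoglobin in supernatant read at 540 nm; PBS as 0% and 1% Triton X-100 as 100% haemolysis. Triplicates.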

[8] = test system: E. faecium ATCC 700221; format: cell-based, Enterococcus faecium; conditions: ATCC 700221, 18 h
Summary of the method: as §1

[9] = test system: K. pneumoniae ATCC 700603; format: cell-based, Klebsiella pneumoniae; conditions: ATCC 700603, 18 h
Summary of the method: as §1

[10] = test system: A. baumannii ATCC BAA-1605; format: cell-based, Acinetobacter baumannii; conditions: ATCC BAA-1605, 18 h
Summary of the method: as §1

[11] = test system: K. aerogenes ATCC 13048; format: cell-based, Klebsiella aerogenes; conditions: ATCC 13048, 18 h
Summary of the method: as §1

Compound | pKa of the side chain [1] | tR’ [2] [min] | MIC SA [3] [µg/mL] | MIC S [4] [µg/mL] | MIC PA [5] [µg/mL] | MIC CA [6] [µg/mL] | HC50 [7] | MIC E1 [8] [µg/mL] | MIC K [9] [µg/mL] | MIC A [10] [µg/mL] | MIC E2 [11] [µg/mL]
NCCCC[C@H](N)C(=O)O [Lys, lysine] | 10.67 |  |  |  |  |  |  |  |  |  | 
CCCCCCCCCCCC(=O)N[C@@H](Cc1c[nH]c2ccccc12)C(=O)N[C@@H](CCCNC(=N)N)C(=O)N[C@@H](CCCNC(=N)N)C(N)=O [compound 97, C12-WRR-NH2] (HELM PEPTIDE1{[CCCCCCCCCCCC(=O)[*:2]].W.R.R.[am]}$$$$V2.0) |  | 40.79 | 4 (≈ 5.73 µM) | 2 (≈ 2.87 µM) | 8 (≈ 11.5 µM) | 8 (≈ 11.5 µM) | 42.42 (±0.57) µg/mL | 8 (≈ 11.5 µM) | 256 (≈ 367 µM) | 32 (≈ 45.8 µM) | 256 (≈ 367 µM)
CCCCCCCCCCCCCC(=O)N[C@@H](Cc1c[nH]c2ccccc12)C(=O)N[C@@H](CCCNC(=N)N)C(=O)N[C@@H](CCCNC(=N)N)C(N)=O [compound 98, C14-WRR-NH2] (HELM PEPTIDE1{[CCCCCCCCCCCCCC(=O)[*:2]].W.R.R.[am]}$$$$V2.0) |  | 47.11 | 4 (≈ 5.51 µM) | 2 (≈ 2.75 µM) | 8 (≈ 11 µM) | 4 (≈ 5.51 µM) | 36.91 (±0.89) µg/mL | 8 (≈ 11 µM) | 64 (≈ 88.2 µM) | 128 (≈ 176 µM) | 32 (≈ 44.1 µM)
CCCCCCCCCCCC(=O)N[C@@H](Cc1ccc(O)cc1)C(=O)N[C@@H](CCCNC(=N)N)C(=O)N[C@@H](CCCNC(=N)N)C(N)=O [compound 101, C12-YRR-NH2] (HELM PEPTIDE1{[CCCCCCCCCCCC(=O)[*:2]].Y.R.R.[am]}$$$$V2.0) |  | 36.17 | 8 (≈ 11.9 µM) | 8 (≈ 11.9 µM) | 16 (≈ 23.7 µM) | 32 (≈ 47.4 µM) | 123.08 (±1.12) µg/mL | 16 (≈ 23.7 µM) | 128 (≈ 190 µM) | 32 (≈ 47.4 µM) | 128 (≈ 190 µM)
CCCCCCCCCCCCCC(=O)N[C@@H](Cc1ccc(O)cc1)C(=O)N[C@@H](CCCNC(=N)N)C(=O)N[C@@H](CCCNC(=N)N)C(N)=O [compound 102, C14-YRR-NH2] (HELM PEPTIDE1{[CCCCCCCCCCCCCC(=O)[*:2]].Y.R.R.[am]}$$$$V2.0) |  | 42.73 | 4 (≈ 5.69 µM) | 4 (≈ 5.69 µM) | 8 (≈ 11.4 µM) | 4 (≈ 5.69 µM) | 46.52 (±5.24) µg/mL | 4 (≈ 5.69 µM) | 32 (≈ 45.5 µM) | 32 (≈ 45.5 µM) | 64 (≈ 91 µM)
